The kinase profiling compilation of Christmann-Franck et al. (2016)

Tests used:
Experiment in all cases: Free Choice Kinase Assay Projects, Flashplate
AKT1 (human) = AKT1 (human) (UniProt P31749); conditions: compound 10.0 µM; ATP 3 µM
AURKA (human) = AURKA (human) (UniProt O14965); conditions: compound 10.0 µM; ATP 10 µM
AURKB (human) = AURKB (human) (UniProt Q96GD4); conditions: compound 10.0 µM; ATP 10 µM
AXL (human) = AXL (human) (UniProt P30530); conditions: compound 10.0 µM; ATP 0.3 µM
CDK2 CCNA2 (human) = CDK2 CCNA2 (human) (UniProt P24941+P20248); conditions: compound 10.0 µM; ATP 0.3 µM
CDK4 CCND1 (human) = CDK4 CCND1 (human) (UniProt P11802+P24385); conditions: compound 10.0 µM; ATP 3 µM
CSNK2A1 (human) = CSNK2A1 (human) (UniProt P68400); conditions: compound 10.0 µM; ATP 0.1 µM
CSNK2A1 (human), sequence (P68400 whole entry, looked up): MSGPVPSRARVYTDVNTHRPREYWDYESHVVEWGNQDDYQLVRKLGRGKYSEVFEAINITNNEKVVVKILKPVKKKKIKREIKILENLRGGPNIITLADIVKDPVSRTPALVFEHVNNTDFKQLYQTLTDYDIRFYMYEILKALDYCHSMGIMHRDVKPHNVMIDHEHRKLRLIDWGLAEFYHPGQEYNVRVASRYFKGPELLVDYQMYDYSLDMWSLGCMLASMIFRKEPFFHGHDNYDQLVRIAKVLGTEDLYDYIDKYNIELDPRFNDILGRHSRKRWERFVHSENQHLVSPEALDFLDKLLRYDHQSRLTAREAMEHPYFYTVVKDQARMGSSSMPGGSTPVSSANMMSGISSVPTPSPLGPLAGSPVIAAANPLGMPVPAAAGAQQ

EGFR (human) = EGFR (human) (UniProt P00533); conditions: compound 10.0 µM; ATP 0.3 µM
EPHB4 (human) = EPHB4 (human) (UniProt P54760); conditions: compound 10.0 µM; ATP 1 µM
ERBB2 (human) = ERBB2 (human) (UniProt P04626); conditions: compound 10.0 µM; ATP 1 µM
IGF1R (human) = IGF1R (human) (UniProt P08069); conditions: compound 10.0 µM; ATP 1 µM
KDR (human) = KDR (human) (UniProt P35968); conditions: compound 10.0 µM; ATP 1 µM
KDR (human), sequence (P35968 whole entry, looked up): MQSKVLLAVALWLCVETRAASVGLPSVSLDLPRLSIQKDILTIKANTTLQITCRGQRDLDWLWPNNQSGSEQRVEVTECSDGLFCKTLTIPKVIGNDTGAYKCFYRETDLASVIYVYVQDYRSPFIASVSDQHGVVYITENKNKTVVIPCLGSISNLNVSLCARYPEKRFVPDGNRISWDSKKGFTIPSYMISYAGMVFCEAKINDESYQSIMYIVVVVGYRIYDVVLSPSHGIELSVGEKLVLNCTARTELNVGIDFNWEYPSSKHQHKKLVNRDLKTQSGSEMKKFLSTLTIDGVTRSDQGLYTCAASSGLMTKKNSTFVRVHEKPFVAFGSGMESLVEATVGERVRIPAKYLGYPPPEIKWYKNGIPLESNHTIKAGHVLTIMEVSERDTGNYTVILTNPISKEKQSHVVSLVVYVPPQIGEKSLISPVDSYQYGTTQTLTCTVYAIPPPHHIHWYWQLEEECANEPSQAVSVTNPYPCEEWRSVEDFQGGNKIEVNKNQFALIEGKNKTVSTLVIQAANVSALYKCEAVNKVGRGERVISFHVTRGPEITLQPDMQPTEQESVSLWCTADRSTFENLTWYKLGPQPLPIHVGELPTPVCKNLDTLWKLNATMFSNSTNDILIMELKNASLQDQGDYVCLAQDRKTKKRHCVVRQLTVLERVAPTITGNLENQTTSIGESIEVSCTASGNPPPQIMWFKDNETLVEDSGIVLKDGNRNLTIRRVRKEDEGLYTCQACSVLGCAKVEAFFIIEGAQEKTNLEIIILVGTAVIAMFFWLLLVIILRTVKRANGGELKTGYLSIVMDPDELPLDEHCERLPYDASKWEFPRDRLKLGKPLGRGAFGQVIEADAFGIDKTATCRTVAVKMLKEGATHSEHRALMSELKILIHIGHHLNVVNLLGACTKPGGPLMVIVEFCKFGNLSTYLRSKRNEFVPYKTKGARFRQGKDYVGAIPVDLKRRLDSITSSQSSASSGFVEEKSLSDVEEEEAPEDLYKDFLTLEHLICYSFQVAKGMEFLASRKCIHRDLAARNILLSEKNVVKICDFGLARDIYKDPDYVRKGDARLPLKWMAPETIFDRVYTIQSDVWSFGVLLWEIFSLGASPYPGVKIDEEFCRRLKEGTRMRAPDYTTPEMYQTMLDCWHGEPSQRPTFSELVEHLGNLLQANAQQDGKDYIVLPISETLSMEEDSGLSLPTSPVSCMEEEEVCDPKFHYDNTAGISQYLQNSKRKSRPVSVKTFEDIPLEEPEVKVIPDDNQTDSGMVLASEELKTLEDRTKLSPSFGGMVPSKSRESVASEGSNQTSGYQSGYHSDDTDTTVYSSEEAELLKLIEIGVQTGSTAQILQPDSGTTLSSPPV

MAP3K8 (human) = MAP3K8 (human) (UniProt P41279); conditions: compound 10.0 µM; ATP 3 µM
MAPK10 (human) = MAPK10 (human) (UniProt P53779); conditions: compound 10.0 µM; ATP 0.3 µM
MAPK14 (human) = MAPK14 (human) (UniProt Q16539); conditions: compound 10.0 µM; ATP 1 µM
MAPK14 (human), sequence (Q16539 whole entry, looked up): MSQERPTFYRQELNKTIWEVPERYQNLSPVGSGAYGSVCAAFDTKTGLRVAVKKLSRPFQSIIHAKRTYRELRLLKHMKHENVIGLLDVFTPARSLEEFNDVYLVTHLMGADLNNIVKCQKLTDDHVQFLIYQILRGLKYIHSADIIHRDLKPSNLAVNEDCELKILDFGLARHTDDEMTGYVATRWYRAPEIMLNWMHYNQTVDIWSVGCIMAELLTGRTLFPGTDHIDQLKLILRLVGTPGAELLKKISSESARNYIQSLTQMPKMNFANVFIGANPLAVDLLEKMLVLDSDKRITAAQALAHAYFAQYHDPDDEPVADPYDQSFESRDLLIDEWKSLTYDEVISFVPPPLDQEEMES

MET (human) = MET (human) (UniProt P08581); conditions: compound 10.0 µM; ATP 0.3 µM
MET (human), sequence (P08581 whole entry, looked up): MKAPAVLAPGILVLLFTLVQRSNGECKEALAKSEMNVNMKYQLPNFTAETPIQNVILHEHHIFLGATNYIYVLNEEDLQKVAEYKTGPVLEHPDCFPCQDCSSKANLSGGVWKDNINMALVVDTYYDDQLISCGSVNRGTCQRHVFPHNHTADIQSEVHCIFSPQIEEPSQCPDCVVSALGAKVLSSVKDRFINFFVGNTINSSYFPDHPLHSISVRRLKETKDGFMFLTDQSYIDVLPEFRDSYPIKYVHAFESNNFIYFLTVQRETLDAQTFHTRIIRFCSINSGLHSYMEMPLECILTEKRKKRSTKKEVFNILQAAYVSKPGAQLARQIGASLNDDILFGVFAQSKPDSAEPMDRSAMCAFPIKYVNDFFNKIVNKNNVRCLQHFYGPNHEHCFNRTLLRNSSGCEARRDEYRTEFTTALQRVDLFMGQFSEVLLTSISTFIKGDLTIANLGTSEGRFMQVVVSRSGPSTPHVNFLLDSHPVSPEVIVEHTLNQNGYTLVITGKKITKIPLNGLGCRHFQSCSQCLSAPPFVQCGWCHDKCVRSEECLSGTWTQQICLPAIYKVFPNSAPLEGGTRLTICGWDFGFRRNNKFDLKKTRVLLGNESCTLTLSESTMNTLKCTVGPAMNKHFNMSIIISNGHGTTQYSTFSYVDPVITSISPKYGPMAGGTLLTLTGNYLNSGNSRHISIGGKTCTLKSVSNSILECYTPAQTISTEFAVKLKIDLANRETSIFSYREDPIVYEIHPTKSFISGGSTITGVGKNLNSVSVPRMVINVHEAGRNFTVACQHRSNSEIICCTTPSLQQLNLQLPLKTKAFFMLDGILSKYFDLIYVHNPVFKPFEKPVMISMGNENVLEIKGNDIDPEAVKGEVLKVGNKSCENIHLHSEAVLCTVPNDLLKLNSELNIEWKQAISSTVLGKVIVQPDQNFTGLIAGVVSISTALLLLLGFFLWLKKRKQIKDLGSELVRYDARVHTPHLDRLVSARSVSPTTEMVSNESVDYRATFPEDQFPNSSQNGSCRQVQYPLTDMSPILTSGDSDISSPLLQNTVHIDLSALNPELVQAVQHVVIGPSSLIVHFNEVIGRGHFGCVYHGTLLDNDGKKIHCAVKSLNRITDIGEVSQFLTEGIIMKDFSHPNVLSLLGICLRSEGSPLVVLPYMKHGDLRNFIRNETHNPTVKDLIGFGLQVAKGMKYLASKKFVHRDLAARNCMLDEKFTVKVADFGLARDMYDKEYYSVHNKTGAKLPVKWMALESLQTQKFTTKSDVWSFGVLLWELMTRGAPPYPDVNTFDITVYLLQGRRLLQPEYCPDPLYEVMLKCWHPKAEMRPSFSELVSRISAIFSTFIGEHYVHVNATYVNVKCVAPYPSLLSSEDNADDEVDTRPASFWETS

NUAK1 (human) = NUAK1 (human) (UniProt O60285); conditions: compound 10.0 µM; ATP 1 µM
NUAK1 (human), sequence (O60285 whole entry, looked up): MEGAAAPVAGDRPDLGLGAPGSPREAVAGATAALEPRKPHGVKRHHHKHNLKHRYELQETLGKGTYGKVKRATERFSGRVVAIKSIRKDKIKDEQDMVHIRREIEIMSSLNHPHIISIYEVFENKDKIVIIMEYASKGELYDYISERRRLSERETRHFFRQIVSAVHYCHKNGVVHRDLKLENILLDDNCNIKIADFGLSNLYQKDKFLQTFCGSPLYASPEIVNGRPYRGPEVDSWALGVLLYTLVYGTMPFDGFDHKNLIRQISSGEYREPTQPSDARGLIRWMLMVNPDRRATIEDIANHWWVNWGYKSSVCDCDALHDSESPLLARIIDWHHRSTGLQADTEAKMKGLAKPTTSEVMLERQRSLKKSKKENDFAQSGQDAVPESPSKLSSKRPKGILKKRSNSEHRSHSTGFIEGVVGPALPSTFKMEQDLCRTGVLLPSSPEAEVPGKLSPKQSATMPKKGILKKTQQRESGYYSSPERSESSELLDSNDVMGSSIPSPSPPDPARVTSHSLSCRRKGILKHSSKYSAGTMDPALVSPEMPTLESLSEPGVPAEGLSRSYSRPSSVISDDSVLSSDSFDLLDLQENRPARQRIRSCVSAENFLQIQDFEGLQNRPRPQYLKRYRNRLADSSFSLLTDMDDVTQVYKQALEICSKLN

PDGFRB (human) = PDGFRB (human) (UniProt P09619); conditions: compound 10.0 µM; ATP 0.3 µM
PLK1 (human) = PLK1 (human) (UniProt P53350); conditions: compound 10.0 µM; ATP 1 µM
PLK4 (human) = PLK4 (human) (UniProt O00444); conditions: compound 10.0 µM; ATP 0.3 µM
PTK2 (human) = PTK2 (human) (UniProt Q05397); conditions: compound 10.0 µM; ATP 1 µM
SRC (human) = SRC (human) (UniProt P12931); conditions: compound 10.0 µM; ATP 0.3 µM
TEK (human) = TEK (human) (UniProt Q02763); conditions: compound 10.0 µM; ATP 1 µM
[1] = tested on: BRAF (human), P15056 [V600E]; conditions: compound 10.0 µM; ATP 3 µM

AURKA (human), sequence (O14965 whole entry, looked up): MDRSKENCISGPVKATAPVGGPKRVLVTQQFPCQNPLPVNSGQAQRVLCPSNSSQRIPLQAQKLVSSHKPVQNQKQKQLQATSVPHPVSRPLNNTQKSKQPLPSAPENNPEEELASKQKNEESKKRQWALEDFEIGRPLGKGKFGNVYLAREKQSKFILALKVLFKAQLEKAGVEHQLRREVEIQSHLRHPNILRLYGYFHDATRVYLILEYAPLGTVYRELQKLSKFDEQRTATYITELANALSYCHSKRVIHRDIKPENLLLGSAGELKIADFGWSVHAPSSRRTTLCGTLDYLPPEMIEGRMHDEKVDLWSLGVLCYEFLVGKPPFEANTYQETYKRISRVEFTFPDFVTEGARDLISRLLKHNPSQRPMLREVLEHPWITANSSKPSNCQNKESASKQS
AKT1 (human), sequence (P31749 whole entry, looked up): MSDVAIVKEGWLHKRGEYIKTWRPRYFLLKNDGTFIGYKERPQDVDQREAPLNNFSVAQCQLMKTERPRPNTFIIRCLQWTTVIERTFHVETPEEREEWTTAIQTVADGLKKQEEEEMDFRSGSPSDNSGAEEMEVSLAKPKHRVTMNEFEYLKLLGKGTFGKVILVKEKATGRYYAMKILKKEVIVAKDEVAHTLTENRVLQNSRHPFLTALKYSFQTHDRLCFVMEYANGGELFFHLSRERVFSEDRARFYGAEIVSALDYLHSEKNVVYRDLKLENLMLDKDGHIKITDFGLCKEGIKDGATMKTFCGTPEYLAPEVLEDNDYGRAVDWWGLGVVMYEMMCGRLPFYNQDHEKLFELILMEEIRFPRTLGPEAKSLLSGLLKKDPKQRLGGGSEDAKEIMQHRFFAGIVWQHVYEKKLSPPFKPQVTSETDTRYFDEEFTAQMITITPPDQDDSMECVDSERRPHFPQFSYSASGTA

residual activity (AKT1 (human)) [%] | residual activity (AURKA (human)) [%] | residual activity (AURKB (human)) [%] | residual activity (AXL (human)) [%] | residual activity (CDK2 CCNA2 (human)) [%] | residual activity (CDK4 CCND1 (human)) [%] | residual activity (CSNK2A1 (human)) [%] | residual activity (EGFR (human)) [%] | residual activity (EPHB4 (human)) [%] | residual activity (ERBB2 (human)) [%] | residual activity (IGF1R (human)) [%] | residual activity (KDR (human)) [%] | residual activity (MAP3K8 (human)) [%] | residual activity (MAPK10 (human)) [%] | residual activity (MAPK14 (human)) [%] | residual activity (MET (human)) [%] | residual activity (NUAK1 (human)) [%] | residual activity (PDGFRB (human)) [%] | residual activity (PLK1 (human)) [%] | residual activity (PLK4 (human)) [%] | SMILES | further results
155 | 93 | 85 | 75 | 71 | 109 | 86 | 17 | 77 | 9 | 41 | 32 | 106 | 88 | 7 | 76 | 127 | 70 | 131 | 128 | Fc1ccc(-c2[nH]c(SCc3ccccc3)nc2-c2ccnc(F)c2)cc1 | residual activity (PTK2 (human)): 90%; residual activity (SRC (human)): 18%; residual activity (TEK (human)): 34%
66 | 64 | 58 | 44 | 17 | 27 | 78 | 16 | 31 | 21 | 20 | 39 | 50 | 20 | 3 | 43 | 43 | 45 | 38 | 17 | CC(Nc1cc(-c2nc(SCc3ccccc3)[nH]c2-c2ccc(F)cc2)ccn1)c1ccccc1 (configuration not stated) | residual activity (PTK2 (human)): 82%; residual activity (SRC (human)): 14%; residual activity (TEK (human)): 13%

Further lines, the compound ahead of its results:

SMILES | residual activity (AKT1 (human)) [%] | residual activity (AURKA (human)) [%] | residual activity (AURKB (human)) [%] | residual activity (AXL (human)) [%] | residual activity (CDK2 CCNA2 (human)) [%] | residual activity (CDK4 CCND1 (human)) [%] | residual activity (CSNK2A1 (human)) [%] | residual activity (EGFR (human)) [%] | residual activity (EPHB4 (human)) [%] | residual activity (ERBB2 (human)) [%] | residual activity (IGF1R (human)) [%] | residual activity (KDR (human)) [%] | residual activity (MAP3K8 (human)) [%] | residual activity (MAPK10 (human)) [%] | residual activity (MAPK14 (human)) [%] | residual activity (MET (human)) [%] | residual activity (NUAK1 (human)) [%] | residual activity (PDGFRB (human)) [%] | residual activity (PLK1 (human)) [%] | residual activity (PLK4 (human)) [%] | further results
Fc1ccc(-c2[nH]c(SCC3CCCCC3)nc2-c2ccncc2)cc1 | 56 | 46 | 80 | 63 | 74 | 44 | 86 | 24 | 38 | 46 | 22 | 48 | 73 | 63 | 23 | 73 | 91 | 81 | 83 | 34 | residual activity (PTK2 (human)): 106%; residual activity (SRC (human)): 38%; residual activity (TEK (human)): 36%
Oc1ccc(CSc2nc(-c3ccncc3)c(-c3ccc(F)cc3)[nH]2)cc1 | 130 | 64 | 78 | 91 | 117 | 103 | 107 | 20 | 42 | 22 | 104 | 26 | 96 | 48 | 4 | 78 | 126 | 65 | 120 | 51 | residual activity [1]: 5%; residual activity (PTK2 (human)): 99%; residual activity (SRC (human)): 34%; residual activity (TEK (human)): 33%
CSc1nc(-c2ccnc(F)c2)c(-c2ccc(F)cc2)[nH]1 | 102 | 93 | 90 | 101 | 125 | 132 | 98 | 23 | 61 | 18 | 96 | 39 | 105 | 48 | 2 | 91 | 105 | 81 | 85 | 76 | residual activity (PTK2 (human)): 100%; residual activity (SRC (human)): 60%; residual activity (TEK (human)): 71%
Fc1ccc(-c2[nH]c(SCCCc3ccccc3)nc2-c2ccncc2)cc1 | 98 | 88 | 88 | 71 | 54 | 99 | 87 | 31 | 55 | 30 | 49 | 52 | 85 | 56 | 10 | 81 | 89 | 80 | 92 | 74 | residual activity (PTK2 (human)): 99%; residual activity (SRC (human)): 33%; residual activity (TEK (human)): 65%
CSc1ccccc1CSc1nc(-c2ccncc2)c(-c2ccc(F)cc2)[nH]1 | 137 | 80 | 79 | 85 | 66 | 89 | 83 | 30 | 52 | 29 | 60 | 51 | 85 | 58 | 10 | 76 | 95 | 85 | 82 | 59 | residual activity (PTK2 (human)): 98%; residual activity (SRC (human)): 29%; residual activity (TEK (human)): 48%
